# Reference: ChEMBL document CHEMBL1201862, “PubChem BioAssay data set” (2004)
# The source made the active and inactive calls.
# Assays:
# [1] = target: Voltage-dependent T-type calcium channel subunit alpha-1H (Homo sapiens, UniProt O95180); assay type: functional;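 also: channel activity triggered by adding a high calcium stimulation buffer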
# [2] = target: DNA dC->dU-editing enzyme APOBEC-3A (Homo sapiens, UniProt P31941); assay: Dose Response confirmation of small molecule APOBEC3A DNA Deaminase Inhibitors via a fluorescence-based single-stranded DNA deaminase assay. [Related pubchem assays (depositor defined):AID493011, AID493024]; assay type: functional
# Sequence of DNA dC->dU-editing enzyme APOBEC-3A (P31941 whole entry): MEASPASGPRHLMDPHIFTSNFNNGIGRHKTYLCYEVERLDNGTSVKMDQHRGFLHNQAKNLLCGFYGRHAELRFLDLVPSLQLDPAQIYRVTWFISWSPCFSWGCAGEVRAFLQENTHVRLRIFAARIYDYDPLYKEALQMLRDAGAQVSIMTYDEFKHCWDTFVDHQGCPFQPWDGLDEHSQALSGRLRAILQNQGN
# [3] = target: DNA dC->dU-editing enzyme APOBEC-3G (Homo sapiens, UniProt Q9HC16); assay type: functional;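 also: Dose-response counterscreen measuring inhibition of APOBEC3G DNA deaminase activity, run while confirming APOBEC3A inhibitors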
# Sequence of DNA dC->dU-editing enzyme APOBEC-3G (Q9HC16 whole entry): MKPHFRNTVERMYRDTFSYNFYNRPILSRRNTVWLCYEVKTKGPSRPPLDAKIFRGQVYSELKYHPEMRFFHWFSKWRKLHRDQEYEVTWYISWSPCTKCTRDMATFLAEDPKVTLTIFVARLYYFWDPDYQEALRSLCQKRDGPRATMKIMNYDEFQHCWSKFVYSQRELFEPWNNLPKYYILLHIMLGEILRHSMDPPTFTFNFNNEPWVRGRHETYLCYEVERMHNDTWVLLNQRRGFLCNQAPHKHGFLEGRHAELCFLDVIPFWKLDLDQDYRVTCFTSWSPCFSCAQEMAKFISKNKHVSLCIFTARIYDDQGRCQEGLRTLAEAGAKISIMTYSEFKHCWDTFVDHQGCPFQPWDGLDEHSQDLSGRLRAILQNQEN
# [4] = target: T1, Short transient receptor potential channel 4 (Mus musculus, UniProt Q9QUQ5); assay: mouse TRPC4 channel activators, dose response, cell-based, HEK293 TRPC4/mu-opioid, Fluo-4 calcium (AID 434937); assay type: functional
# T1 sequence (Q9QUQ5 whole entry): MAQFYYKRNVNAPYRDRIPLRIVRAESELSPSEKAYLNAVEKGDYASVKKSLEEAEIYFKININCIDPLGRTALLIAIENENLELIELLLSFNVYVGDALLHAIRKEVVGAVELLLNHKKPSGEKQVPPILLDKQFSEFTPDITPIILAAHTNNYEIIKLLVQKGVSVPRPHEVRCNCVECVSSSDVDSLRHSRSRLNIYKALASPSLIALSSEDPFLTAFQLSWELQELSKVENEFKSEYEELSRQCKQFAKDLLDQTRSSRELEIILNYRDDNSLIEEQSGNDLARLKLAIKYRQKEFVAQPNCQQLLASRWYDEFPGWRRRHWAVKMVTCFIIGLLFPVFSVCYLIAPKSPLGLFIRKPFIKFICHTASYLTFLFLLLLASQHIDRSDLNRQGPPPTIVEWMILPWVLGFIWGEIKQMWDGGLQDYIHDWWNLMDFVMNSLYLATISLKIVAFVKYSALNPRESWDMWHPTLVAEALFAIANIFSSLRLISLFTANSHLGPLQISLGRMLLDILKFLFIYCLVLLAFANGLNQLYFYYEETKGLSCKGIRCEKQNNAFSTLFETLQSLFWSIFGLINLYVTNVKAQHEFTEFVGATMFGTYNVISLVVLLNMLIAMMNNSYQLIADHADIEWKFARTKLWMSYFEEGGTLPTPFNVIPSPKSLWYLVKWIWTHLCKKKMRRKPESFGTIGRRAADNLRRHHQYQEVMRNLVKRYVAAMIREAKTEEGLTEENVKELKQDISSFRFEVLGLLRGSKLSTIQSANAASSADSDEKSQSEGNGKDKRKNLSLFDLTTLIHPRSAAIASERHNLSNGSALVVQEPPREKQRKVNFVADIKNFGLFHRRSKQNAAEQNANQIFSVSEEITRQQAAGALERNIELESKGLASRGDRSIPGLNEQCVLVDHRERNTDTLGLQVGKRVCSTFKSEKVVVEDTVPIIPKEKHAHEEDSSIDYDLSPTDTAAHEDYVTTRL
# [5] = NIH-3T3 fibroblast cytotoxicity, dose response, cytotoxicity control, cell-based, fluorescence, Alamar Blue, secondary assay (AID 2327); assay type: functional;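 also: NIH-3T3 mouse fibroblasts cultured with fluconazole at 8 µg/mL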
# [6] = C. albicans growth with fluconazole, confirmation, fluorescence, retest (AID 2467); assay type: functional, cell-based
# [7] = target: T2, Acyl-homoserine lactone acylase PvdQ (Pseudomonas aeruginosa (strain LESB58), UniProt Q9I194); assay: P. aeruginosa PvdQ acylase inhibitors, dose response, biochemical, fluorescence, plate reader and imaging, cherry-picks (AID 493231)
# T2 sequence (Q9I194 whole entry): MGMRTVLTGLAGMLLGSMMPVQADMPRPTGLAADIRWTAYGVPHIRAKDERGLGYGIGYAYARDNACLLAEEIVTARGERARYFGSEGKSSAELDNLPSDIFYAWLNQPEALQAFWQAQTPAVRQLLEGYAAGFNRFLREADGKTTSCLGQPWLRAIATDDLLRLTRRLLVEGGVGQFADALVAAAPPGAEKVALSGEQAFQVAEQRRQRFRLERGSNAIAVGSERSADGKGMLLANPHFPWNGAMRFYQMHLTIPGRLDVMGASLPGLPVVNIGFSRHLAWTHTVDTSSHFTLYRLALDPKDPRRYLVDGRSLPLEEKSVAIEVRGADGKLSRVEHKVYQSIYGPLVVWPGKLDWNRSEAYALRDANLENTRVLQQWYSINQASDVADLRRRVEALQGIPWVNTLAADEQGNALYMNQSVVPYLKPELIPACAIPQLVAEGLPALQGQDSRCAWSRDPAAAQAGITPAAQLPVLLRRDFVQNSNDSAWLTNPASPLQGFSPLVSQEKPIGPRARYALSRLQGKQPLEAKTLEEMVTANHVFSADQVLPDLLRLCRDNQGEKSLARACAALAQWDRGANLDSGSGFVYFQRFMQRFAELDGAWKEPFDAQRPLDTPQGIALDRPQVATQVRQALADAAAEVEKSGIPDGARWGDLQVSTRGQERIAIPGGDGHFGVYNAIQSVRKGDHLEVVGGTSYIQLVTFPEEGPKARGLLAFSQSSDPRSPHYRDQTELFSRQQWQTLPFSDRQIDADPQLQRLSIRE
# [8] = cytotoxicity in HEK-293T cells, dose response, cytotoxicity control for BCR NF-kB inhibitor project, luminescence, B-cell screen hits (AID 489021); assay type: functional, cell-based;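 also: HEK-293T cells carrying an NF-kB luciferase reporter; cells exposed to compound for about 14 hours before viability readout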
# HEK293 = assay: inhibitors of LMP1-driven NF-kB reporter, dose response, cell-based, HEK293, luciferase, cherry-pick (AID 588343); assay type: functional; settings: Homo sapiens
# [9] = inhibitors of SNCA 5'UTR-driven reporter translation, confirmation, H4 neuroglioma cells, luminescence (AID 1988); assay type: functional, cell-based
# [10] = Luminescence Cell-Based Dose Response HTS to Identify Inhibitors of 5'UTR Stem-Loop Driven Prion Protein mRNA Translation in H4 Neuroglioblastoma Cells. [Related pubchem assays: 1827 (Project Summary), 1813 (Primary HTS)]; assay type: functional
# [11] = inhibitors of firefly luciferase expression or activity, dose response, H4 neuroglioma cells, luminescence (AID 1990); assay type: functional, cell-based
# Cytochrome P450 2C9 = Cytochrome P450 2C9 (Homo sapiens, UniProt P11712)
# Sequence of Cytochrome P450 2C9 (P11712 whole entry): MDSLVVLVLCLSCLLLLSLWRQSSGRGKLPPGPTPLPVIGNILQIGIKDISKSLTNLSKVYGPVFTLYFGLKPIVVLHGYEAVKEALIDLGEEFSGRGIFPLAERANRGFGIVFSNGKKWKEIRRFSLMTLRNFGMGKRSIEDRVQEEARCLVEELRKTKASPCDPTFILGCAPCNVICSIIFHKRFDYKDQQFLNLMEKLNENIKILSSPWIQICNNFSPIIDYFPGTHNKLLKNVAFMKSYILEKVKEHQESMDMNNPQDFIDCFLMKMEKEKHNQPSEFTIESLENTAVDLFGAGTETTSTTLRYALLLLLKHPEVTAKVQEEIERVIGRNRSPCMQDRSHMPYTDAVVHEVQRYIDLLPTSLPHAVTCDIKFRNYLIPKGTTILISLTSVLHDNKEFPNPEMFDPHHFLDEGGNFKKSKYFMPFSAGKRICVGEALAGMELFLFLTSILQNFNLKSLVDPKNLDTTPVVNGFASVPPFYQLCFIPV
# Leucine aminopeptidase = target: T3, Leucine aminopeptidase (Plasmodium falciparum 3D7, UniProt Q8IL11); assay: P. falciparum M17LAP inhibitors, primary screen, biochemical, fluorogenic H-Leu-NHMec substrate, 1536-well (AID 1619); assay type: functional
# T3 sequence (Q8IL11 whole entry): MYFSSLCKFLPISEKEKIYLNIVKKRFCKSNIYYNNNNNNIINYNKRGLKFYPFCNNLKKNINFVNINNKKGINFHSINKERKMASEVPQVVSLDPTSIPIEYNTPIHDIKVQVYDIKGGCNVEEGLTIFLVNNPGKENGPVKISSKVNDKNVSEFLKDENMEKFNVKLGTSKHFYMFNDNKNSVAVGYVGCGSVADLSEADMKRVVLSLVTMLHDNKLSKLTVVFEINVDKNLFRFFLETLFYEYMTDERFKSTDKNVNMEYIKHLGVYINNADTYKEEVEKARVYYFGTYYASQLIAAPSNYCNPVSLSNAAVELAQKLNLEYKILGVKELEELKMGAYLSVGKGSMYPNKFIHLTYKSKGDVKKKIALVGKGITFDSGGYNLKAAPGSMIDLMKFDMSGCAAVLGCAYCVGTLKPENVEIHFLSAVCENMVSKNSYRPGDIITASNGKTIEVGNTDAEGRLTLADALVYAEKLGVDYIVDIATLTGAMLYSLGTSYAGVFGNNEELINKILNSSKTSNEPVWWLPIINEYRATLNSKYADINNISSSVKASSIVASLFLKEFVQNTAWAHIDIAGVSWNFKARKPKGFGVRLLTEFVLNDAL
# Cytochrome P450 3A4 = Cytochrome P450 3A4 (Homo sapiens, UniProt P08684); settings: Potency;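 also: confirmatory qHTS run detecting inhibitors and substrates of CYP3A4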
# Sequence of Cytochrome P450 3A4 (P08684 whole entry): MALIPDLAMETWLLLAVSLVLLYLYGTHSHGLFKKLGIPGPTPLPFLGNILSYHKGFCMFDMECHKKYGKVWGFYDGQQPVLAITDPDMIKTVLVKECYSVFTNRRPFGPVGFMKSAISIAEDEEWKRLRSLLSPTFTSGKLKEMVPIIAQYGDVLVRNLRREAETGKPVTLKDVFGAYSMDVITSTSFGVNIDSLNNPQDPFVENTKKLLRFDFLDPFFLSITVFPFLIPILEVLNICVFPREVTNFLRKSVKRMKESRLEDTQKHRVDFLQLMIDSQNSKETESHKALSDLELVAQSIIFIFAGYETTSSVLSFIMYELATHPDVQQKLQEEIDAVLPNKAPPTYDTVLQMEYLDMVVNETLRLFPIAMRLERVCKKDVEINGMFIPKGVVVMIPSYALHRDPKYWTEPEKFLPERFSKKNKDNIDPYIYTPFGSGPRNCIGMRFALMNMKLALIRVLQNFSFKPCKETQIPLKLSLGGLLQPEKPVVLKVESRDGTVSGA
# Cytochrome P450 2C19 = Cytochrome P450 2C19 (Homo sapiens, UniProt P33261); assay: Cytochrome panel assay with activity outcomes. Panel member name: p450-cyp2c19 Compounds with AC50 equal or less than 10 uM are considered active; assay type: functional; settings: read-out: AC50
# Sequence of Cytochrome P450 2C19 (P33261 whole entry): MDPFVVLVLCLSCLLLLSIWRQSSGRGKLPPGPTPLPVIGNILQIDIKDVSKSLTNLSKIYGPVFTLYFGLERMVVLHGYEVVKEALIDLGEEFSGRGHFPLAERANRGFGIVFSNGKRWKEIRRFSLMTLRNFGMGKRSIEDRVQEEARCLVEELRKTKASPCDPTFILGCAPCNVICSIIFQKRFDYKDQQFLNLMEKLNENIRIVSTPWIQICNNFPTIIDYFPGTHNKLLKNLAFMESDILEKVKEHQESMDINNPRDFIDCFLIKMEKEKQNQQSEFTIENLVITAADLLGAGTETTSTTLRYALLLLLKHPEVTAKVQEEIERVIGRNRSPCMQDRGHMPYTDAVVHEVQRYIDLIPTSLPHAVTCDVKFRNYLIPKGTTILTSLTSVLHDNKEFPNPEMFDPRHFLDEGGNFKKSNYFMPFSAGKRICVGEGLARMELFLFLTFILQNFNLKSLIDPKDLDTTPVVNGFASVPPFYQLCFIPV
# [12] = cytotoxicity toward DRD oncogenic fibroblasts, dose response, cell-based, non-viral oncogenic, luminescence (AID 1934); assay type: functional; settings: Homo sapiens
# BJ [13] = assay: cytotoxicity toward BJ-TERT fibroblasts, dose response, cell-based, RAS-independent, luminescence (AID 1933); assay type: functional, Homo sapiens; settings: Homo sapiens, BJ
# BJ [14] = assay: cytotoxicity toward BJ-TERT-LT-ST fibroblasts, dose response, cell-based, RAS-independent, luminescence (AID 1935); assay type: functional, Homo sapiens; settings: Homo sapiens, BJ;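 also: BJ fibroblasts immortalized with TERT plus LT and ST oncogenes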
# BJ [15] = assay: cells; assay type: functional, cell-based, Homo sapiens; settings: Homo sapiens, BJ
# Streptokinase A = target: T4, Streptokinase A (Streptococcus pyogenes serotype M1, UniProt P10520); assay: S. pyogenes streptokinase expression inhibitors, potency, dose response, plasminogen activation absorbance, OD405 (AID 1914); assay type: functional, Streptococcus pyogenes M1 GAS;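 also: secreted streptokinase activity via plasminogen activation per viability signal from cell pellet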
# T4 sequence (P10520 whole entry): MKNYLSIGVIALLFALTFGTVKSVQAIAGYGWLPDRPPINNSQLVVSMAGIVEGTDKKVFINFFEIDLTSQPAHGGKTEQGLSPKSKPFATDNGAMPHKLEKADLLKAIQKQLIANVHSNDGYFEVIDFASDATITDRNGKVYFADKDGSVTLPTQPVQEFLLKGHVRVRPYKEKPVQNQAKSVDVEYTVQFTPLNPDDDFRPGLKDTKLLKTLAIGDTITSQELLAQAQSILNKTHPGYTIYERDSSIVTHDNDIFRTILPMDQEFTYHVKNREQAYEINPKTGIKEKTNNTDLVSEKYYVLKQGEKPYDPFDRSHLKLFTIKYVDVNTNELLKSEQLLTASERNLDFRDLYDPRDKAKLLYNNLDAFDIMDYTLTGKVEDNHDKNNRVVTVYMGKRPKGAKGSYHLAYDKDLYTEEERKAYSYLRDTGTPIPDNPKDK
# [16] = system: Streptococcus sp. 'group A'; assay: growth inhibition of control SK(-) GAS strain, dose response, counter-screen for streptokinase expression inhibitor project, luminescence, kanamycin, BacTiterGlo, confirmation (AID 1900); assay type: functional, organism-based
# Streptococcus = assay: Group A Streptococcus viability loss, dose response, counter-screen for streptokinase expression inhibitor project, luminescence, BacTiterGlo (AID 1915); assay type: functional, organism-based;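 also: potency for reduction of bacterial viability or growth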
# [17] = Luminescence Cell-Based Dose Retest to Confirm Inhibitors of Cancer Stem Cells. [Related pubchem assays (depositor defined):AID2717, AID2721]; assay type: functional; settings: Homo sapiens
# Sequence of Voltage-dependent T-type calcium channel subunit alpha-1H (O95180 whole entry): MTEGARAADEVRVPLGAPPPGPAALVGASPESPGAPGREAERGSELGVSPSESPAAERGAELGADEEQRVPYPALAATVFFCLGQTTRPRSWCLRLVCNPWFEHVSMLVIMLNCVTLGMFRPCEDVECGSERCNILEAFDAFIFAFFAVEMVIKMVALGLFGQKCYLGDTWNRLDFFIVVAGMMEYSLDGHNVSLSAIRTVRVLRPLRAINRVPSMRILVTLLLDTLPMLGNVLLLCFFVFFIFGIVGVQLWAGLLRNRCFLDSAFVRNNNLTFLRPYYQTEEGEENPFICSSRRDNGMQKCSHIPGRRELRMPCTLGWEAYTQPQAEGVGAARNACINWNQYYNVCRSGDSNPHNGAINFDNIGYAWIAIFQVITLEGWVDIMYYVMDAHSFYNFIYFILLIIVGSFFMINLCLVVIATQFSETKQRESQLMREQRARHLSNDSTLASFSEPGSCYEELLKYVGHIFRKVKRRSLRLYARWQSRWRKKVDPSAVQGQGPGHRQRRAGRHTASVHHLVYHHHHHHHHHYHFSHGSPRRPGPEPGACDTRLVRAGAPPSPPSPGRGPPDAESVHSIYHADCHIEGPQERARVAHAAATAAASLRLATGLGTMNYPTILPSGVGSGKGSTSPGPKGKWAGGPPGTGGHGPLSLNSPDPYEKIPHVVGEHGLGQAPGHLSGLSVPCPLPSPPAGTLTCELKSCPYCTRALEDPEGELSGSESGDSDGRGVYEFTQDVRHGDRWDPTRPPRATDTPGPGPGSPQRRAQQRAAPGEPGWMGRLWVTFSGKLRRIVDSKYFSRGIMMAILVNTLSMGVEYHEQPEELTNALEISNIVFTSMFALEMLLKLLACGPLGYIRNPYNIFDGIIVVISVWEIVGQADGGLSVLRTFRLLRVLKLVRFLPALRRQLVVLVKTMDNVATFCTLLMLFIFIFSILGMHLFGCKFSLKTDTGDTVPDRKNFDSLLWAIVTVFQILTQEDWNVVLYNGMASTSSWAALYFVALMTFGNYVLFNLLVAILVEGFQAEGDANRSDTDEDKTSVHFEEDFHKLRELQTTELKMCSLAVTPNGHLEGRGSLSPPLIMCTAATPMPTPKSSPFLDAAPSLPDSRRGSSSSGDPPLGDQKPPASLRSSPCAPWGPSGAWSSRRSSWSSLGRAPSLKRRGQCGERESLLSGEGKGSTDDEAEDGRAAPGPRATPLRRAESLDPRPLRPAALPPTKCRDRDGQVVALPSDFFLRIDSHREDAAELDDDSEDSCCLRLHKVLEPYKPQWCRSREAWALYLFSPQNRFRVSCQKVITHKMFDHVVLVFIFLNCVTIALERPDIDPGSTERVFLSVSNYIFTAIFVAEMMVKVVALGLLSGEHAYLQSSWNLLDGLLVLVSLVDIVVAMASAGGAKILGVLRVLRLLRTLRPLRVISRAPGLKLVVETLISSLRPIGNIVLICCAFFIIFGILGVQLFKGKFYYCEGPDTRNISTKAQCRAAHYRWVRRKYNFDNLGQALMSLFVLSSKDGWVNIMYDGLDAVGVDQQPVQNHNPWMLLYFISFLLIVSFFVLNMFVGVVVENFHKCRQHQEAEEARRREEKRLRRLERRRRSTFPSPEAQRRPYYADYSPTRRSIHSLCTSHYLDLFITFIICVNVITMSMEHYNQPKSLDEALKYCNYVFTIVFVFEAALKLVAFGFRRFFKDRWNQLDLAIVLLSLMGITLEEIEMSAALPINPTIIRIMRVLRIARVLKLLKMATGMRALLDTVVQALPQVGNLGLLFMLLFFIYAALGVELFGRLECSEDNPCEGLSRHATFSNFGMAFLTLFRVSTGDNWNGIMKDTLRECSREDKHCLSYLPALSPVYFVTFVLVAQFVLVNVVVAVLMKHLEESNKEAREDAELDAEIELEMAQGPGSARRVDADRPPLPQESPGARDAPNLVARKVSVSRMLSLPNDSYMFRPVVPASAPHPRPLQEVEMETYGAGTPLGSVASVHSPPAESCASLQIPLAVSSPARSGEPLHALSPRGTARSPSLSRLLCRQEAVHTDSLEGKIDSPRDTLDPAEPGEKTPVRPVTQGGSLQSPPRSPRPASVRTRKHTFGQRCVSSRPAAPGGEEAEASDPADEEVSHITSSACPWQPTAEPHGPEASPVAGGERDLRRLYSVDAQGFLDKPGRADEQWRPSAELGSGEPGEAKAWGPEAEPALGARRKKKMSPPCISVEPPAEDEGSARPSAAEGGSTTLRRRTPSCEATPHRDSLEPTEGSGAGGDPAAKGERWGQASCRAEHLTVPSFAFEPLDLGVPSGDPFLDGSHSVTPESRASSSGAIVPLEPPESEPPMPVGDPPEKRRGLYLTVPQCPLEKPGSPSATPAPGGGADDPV
compound,measurement,setting,value
O=C(CN1CCN(c2ccccn2)CC1)N(c1ccccc1)c1ccc2ccccc2c1,EC50,[1],6.52 µM (active)
CC1=CC(C)C(C[N+]2(C)CCCCC2)C(C)C1 (stereo not drawn),IC50,[2],6.16 µM (active)
same,IC50,[3],6.31 µM (active)
CCCCC(=O)NNC(=S)NC(=O)c1ccc(C)cc1,EC50,[4],2.99 µM (active)
same,EC50,[5],> 150 µM (inconclusive)
same,EC50,[6],1.43 µM (active)
Brc1ccc(-c2nnc(-c3ccco3)o2)cc1,AC50,[7],46.2 µM (active)
O=C(CCCN1C(=O)/C(=C/c2ccccc2Cl)SC1=S)NNC(=O)c1ccccc1Cl,IC50,[8],> 80 µM (inactive)
same,AC50,HEK293,9.18 µM (active)
same,EC50,[9],7.8 µM (active)
same,EC50,[10],10.5 µM (active)
same,EC50,[11],5.95 µM (active)
O=C1Nc2ccc(F)cc2C12SCCS2,AC50,Cytochrome P450 2C9,inconclusive
COc1ccc(NC(=O)CN2c3cccc4cccc(c34)S2(=O)=O)cc1,AC50,Cytochrome P450 2C9,inconclusive
same,IC50,Leucine aminopeptidase,3.84 µM (active)
Cc1ccccc1NC(=O)c1ccc(CN2CCc3ccccc3C2)cc1,EC50,[1],2.28 µM (active)
Cc1nn(Cc2ccccc2)c(C)c1NC(=O)c1cc(-c2ccco2)on1,EC50,[1],9.33 µM (active)
CC(C)CC1CCCCC1OC(=O)C[N+]1(C)CCCCC1 (stereo not drawn),IC50,[2],2.2 µM (active)
same,IC50,[3],2.29 µM (active)
CCN(CC)CCCCn1c(-c2ccccc2)nc2c(NC3CCCCC3)nc(C)nc21,AC50,Cytochrome P450 3A4,25.1 µM (inconclusive)
O=S1(=O)CCOC[C@H](c2ccccc2)N1Cc1cccc(Cl)c1,AC50,[7],12.7 µM (active)
O=C1C=C(c2cc(F)ccc2F)C[C@@H](c2ccc(F)cc2)C1,AC50,[7],9.05 µM (active)
COc1ccc(NC(=O)c2cc(C(C)C)on2)cc1OC,AC50,Cytochrome P450 2C9,inconclusive
same,AC50,Cytochrome P450 2C19,20 µM (inconclusive)
Cc1ccccc1-n1c(SCc2c(C)noc2C)nnc1-c1c[nH]c2ccccc12,IC50,[8],> 80 µM (inactive)
Cc1nc(N2CCOCC2)c2nc(-c3ccccc3)n(CCN3CCCC3)c2n1,AC50,Cytochrome P450 3A4,20 µM (inconclusive)
CCn1c(N)[n+](CC(=O)Nc2ccc(SC(F)F)cc2)c2ccccc21,EC50,[4],4.22 µM (active)
CCOCCCNc1nc2c(C)cccn2c(=O)c1/C=C1\SC(=S)N(C(C)CC)C1=O (stereo not drawn),IC50,[8],> 80 µM (inactive)
same,EC50,[12],38.5 µM (active)
same,EC50,BJ [13],> 150 µM (not active)
same,EC50,BJ [14],> 150 µM (inconclusive)
same,EC50,BJ [15],> 150 µM (not active)
C[n+]1ccccc1/C=C/c1ccc2ncccc2c1,IC50,[2],0.892 µM (active)
same,IC50,[3],1.92 µM (active)
Cc1cc(-c2ccc(C)c(S(=O)(=O)NCCCN(Cc3ccccc3)C(C)C)c2)on1,EC50,[4],1.33 µM (active)
CCOC(=O)C1(CCOc2ccccc2)CCN(Cc2ccc(NC(C)=O)cc2)CC1,EC50,[4],0.211 µM (active)
O/N=C(\c1ccc(Cl)cc1Cl)c1ncc(C(F)(F)F)cc1Cl,EC50,Streptokinase A,35.2 µM (active)
same,EC50,[16],10.6 µM (active)
same,EC50,[1],2.11 µM (active)
same,EC50,Streptococcus,> 150 µM (not active)
same,AC50,[17],8.81 µM (active)
Nc1nc[nH]n1 [AMITROLE],AC50,Cytochrome P450 3A4,15.8 µM (inconclusive)
"COc1cc(O)c2c(=O)cc(C)oc2c1CC=C(C)C [HETEROPEUCENIN, METHYL ETHER]",AC50,Cytochrome P450 3A4,39.8 µM (inconclusive)
